Usually inhibition stands for the change of the read-out against control, counted positive when it falls.

The structures appear in SMILES notation. Some results are limits rather than exact numbers.

Here are results for ten molecules from patent publication US20170088520A1, “DEUBIQUITINASE INHIBITORS” (PharmAkea, Inc., priority 2014, published 2017).

Assay [1] concerns Mcl-1 expression in cells (NCI-H929, Z138, MM.1S, A-375). Description: Analysis of Mcl-1 expression by Western blotting. The assay is classed as cell-based. The conditions noted are these: compound tested at 5 μM; Western blot. The method, boiled down: (§1)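 NCI-H929, Z138, MM.1S and A-375 cells were treated with compounds at 5 μM, and lysates were Western blotted with anti-Mcl-1 and anti-PARP antibodies, quantified by infrared fluorescence. Activity is a significant drop in Mcl-1 and the appearance of cleaved PARP, each relative to vehicle-treated cells.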
For orientation: Immunoblotting shows a protein as a band on a membrane.

For assay [2], the system named is MM.1S myeloma tumor cells. The assay can be described thus: In vivo tumor growth assay (xenograft model). The conditions noted are these: SCID Beige mice injected with MM.1S myeloma tumor cells; 15 mpk three times per week. How it is done: Example B-3: In Vivo Tumor Growth Assay
A xenograft model is used to test efficacy of compounds in inhibiting tumor growth. Briefly, 1×10^6-2×10^7 tumor cell suspensions (Z138, A375, MM.1S, VCaP) are injected subcutaneously into the flank regions of mice (SCID, NSG, nude) in an equal volume of matrigel. Tumor volumes are measured using calipers and when the tumor volumes are ˜100 mm^3, test compound is administered every 1-3 days by oral gavage or by injection (intraperitoneal, intravenous, subcutaneous) until tumor volumes of the vehicle treated animals are ˜1000-2000 mm^3. Inhibition of primary tumor growth is evident as a significant decrease in tumor volume relative to the vehicle treated mice.
Following the above protocol using SCID Beige mice injected with MM.1S myeloma tumor cells and dosing with Compound 74 at 15 mpk three times per week, an approximately 50% reduction in tumor volume was observed

Assay [3] has as its system PARP cleavage in cells (NCI-H929, Z138, MM.1S, A-375). The assay can be described thus: Analysis of PARP cleavage by Western blotting. The assay is classed as cell-based. The note with it: compound tested at 5 μM; Western blot. The method, boiled down:
as §1

Assay [4] concerns the target T1, DUB activity in cells (NCI-H929, Z138, MM.1S, A375) (Homo sapiens, UniProt Q93008).
T1 construct: endogenous in cells; host or cells: NCI-H929, Z138, MM.1S, A375
The assay can be described thus: HA-Ubiquitin-Vinylsulfone (HA-Ub-VS) cell labeling assay. The conditions noted are these: compound tested at 5 μM; HA-Ub-VS labeling of USP9x in cells. The format is cell-based. The method in brief: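 NCI-H929, Z138, MM.1S or A375 cells (1–2×10^6) treated 2–6 h at 37 °C with compound in 0.5% DMSO, here 5 μM. Lysates labeled with HA-Ub-VS for 15–60 min at 37 °C. Labeled DUBs resolved by SDS-PAGE and quantified by anti-HA and anti-β-actin immunoblot with infrared detection.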

T1 sequence (Q93008 whole entry): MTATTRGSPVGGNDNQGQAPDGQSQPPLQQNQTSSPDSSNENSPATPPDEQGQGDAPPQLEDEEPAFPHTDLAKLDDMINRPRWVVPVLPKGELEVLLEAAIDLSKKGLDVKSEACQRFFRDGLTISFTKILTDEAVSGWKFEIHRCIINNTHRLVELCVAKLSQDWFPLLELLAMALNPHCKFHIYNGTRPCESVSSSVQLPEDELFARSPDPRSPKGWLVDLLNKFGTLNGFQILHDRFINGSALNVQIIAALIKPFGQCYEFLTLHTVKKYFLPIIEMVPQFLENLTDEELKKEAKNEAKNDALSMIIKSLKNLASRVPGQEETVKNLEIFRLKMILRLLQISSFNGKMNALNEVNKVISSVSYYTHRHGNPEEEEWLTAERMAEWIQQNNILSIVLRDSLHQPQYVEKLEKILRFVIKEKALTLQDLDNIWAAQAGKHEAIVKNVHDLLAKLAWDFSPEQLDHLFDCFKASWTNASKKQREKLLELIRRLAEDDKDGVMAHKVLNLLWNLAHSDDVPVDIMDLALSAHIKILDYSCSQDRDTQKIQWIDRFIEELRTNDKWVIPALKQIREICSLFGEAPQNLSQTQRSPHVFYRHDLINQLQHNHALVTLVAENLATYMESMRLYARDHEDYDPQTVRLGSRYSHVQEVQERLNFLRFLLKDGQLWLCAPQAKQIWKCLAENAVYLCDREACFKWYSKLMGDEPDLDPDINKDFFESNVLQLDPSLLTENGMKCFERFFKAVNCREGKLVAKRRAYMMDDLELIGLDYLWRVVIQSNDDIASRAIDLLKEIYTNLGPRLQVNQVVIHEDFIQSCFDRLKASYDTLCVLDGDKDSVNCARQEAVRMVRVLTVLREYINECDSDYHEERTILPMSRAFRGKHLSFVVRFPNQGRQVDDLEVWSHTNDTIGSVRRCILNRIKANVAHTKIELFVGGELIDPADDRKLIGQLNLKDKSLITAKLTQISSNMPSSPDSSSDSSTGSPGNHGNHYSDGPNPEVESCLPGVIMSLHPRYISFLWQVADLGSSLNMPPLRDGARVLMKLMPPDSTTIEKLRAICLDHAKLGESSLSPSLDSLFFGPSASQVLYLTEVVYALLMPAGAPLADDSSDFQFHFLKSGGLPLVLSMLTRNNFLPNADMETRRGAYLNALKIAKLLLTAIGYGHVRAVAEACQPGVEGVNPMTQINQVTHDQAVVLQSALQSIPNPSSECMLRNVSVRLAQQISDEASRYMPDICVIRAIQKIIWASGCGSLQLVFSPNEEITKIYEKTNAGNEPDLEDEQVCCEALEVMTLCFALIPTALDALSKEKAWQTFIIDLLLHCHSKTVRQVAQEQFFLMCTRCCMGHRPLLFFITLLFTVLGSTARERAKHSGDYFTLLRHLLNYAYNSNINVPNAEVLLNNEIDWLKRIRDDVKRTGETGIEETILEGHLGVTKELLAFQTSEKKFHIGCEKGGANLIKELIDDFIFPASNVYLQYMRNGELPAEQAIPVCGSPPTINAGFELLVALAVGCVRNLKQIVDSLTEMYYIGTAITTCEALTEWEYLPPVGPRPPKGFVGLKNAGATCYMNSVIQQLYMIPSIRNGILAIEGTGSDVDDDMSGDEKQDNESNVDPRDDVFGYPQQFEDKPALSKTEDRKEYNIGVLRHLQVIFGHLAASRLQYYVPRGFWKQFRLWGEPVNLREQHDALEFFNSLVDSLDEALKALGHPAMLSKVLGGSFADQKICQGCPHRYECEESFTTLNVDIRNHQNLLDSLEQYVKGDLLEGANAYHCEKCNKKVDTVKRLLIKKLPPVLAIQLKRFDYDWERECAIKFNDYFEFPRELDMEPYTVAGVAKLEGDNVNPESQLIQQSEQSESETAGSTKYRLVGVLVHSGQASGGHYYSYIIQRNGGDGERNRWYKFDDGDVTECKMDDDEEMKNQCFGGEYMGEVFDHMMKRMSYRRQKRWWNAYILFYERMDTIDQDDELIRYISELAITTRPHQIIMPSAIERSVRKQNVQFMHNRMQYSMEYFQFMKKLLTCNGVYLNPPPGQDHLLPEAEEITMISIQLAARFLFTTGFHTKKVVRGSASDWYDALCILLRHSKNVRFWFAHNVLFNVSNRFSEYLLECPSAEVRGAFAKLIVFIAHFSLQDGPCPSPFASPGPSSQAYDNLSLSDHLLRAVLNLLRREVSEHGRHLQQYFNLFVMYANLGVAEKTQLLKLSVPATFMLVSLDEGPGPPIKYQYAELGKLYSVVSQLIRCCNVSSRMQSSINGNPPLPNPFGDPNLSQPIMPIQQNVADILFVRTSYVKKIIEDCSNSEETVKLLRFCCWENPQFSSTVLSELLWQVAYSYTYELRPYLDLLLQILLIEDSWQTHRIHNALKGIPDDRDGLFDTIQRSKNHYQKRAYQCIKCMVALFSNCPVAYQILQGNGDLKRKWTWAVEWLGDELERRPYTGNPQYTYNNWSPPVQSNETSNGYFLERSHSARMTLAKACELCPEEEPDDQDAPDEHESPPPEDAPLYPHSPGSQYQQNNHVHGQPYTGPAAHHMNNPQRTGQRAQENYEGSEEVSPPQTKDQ

For the molecule `N#C/C(=C\c1cccc(Br)n1)C(=O)NC1(c2ccc(-c3cccc(C(=O)O)c3)cc2)CCCC1` [Compound 74, (E)-4′-(1-(3-(6-bromopyridin-2-yl)-2-cyanoacrylamido)cyclopentyl)-[1,1′-biphenyl]-3-carboxylic acid], the inhibition at 5 µM in assay [1] and in assay [4] was 50 to 75% in each case. In assay [2], the “reduction in tumor volume” value is “approximately 50%”. The “PARP cleavage % Inhibition” value in assay [3] is reported as “A (A is ≧75% inhibition)”.

`Cc1cccc(C2(NC(=O)/C(C#N)=C/c3ncc(Br)cc3Br)CCCC2)c1` [Compound 26, (E)-2-cyano-3-(3,5-dibromopyridin-2-yl)-N-(1-(m-tolyl)cyclopentyl)acrylamide]: the inhibition at 5 µM in assay [1] and in assay [4] was at least 75% in each case. In addition, the “PARP cleavage % Inhibition” value in assay [3] is “A (A is ≧75% inhibition)”.

In the case of `COC(=O)c1ccc(-c2ccc(C3(NC(=O)/C(C#N)=C/c4ncc(Br)cc4Br)CCCC3)cc2)cn1` [Compound 37, (E)-methyl 5-(4-(1-(2-cyano-3-(3,5-dibromopyridin-2-yl)acrylamido)cyclopentyl)phenyl)picolinate], the inhibition at 5 µM in assay [1] and in assay [4] was 50 to 75% each time. The “PARP cleavage % Inhibition” value in assay [3] is “B (B is 50% to 75% inhibition)”.

As for `N#C/C(=C\c1ncc(Br)cc1Br)C(=O)NC1(c2ccc(C#CCN3CCOCC3)cc2)CCCC1` [Compound 50, (E)-2-cyano-3-(3,5-dibromopyridin-2-yl)-N-(1-(4-(3-morpholinoprop-1-yn-1-yl)phenyl)cyclopentyl)acrylamide], the inhibition at 5 µM in assay [1] and in assay [4] was at least 75% throughout. Further, the “PARP cleavage % Inhibition” value in assay [3] is recorded as “A (A is ≧75% inhibition)”.

For `COc1ccc(C2(NC(=O)/C(C#N)=C/c3cccc(Br)n3)CCCC2)cc1` [Compound 16, (E)-3-(6-Bromopyridin-2-yl)-2-cyano-N-(1-(4-methoxyphenyl)cyclopentyl)acrylamide], the inhibition at 5 µM in assay [1] and in assay [4] was 50 to 75% in each case. Also, in assay [3], the “PARP cleavage % Inhibition” value is “A (A is ≧75% inhibition)”.

Regarding `N#C/C(=C\c1cccc(Br)n1)C(=O)NC1(c2ccc(-c3cccc(C(=O)NS(=O)(=O)c4ccccc4)c3)cc2)CCCC1` [Compound 94, (E)-4′-(1-(3-(6-bromopyridin-2-yl)-2-cyanoacrylamido)cyclopentyl)-N-(phenylsulfonyl)-[1,1′-biphenyl]-3-carboxamide], the results for the inhibition at 5 µM in assay [1] and in assay [4] were 25 to 50% and below 25%, respectively. In addition, in assay [3], the “PARP cleavage % Inhibition” value is recorded as “A (A is ≧75% inhibition)”.

In the case of `N#C/C(=C\c1ncc(Br)cc1Br)C(=O)NC1(c2ccncc2)CCCC1` [Compound 3-3, (E)-2-cyano-3-(3,5-dibromopyridin-2-yl)-N-(1-(pyridin-4-yl)cyclopentyl)acrylamide], the results for the inhibition at 5 µM in assay [1] and in assay [4] were at least 75% and 50 to 75%, respectively. Moreover, the “PARP cleavage % Inhibition” value in assay [3] is given as “A (A is ≧75% inhibition)”.

Turning to `Cc1ccc(-c2ccc(C3(NC(=O)/C(C#N)=C/c4cccc(Br)n4)CCCC3)cc2)cc1CC(=O)O` [Compound 98, (E)-2-(4′-(1-(3-(6-bromopyridin-2-yl)-2-cyanoacrylamido)cyclopentyl)-4-methyl-[1,1′-biphenyl]-3-yl)acetic acid], the inhibition at 5 µM in assay [1] and in assay [4] was below 25% throughout. Besides, the “PARP cleavage % Inhibition” value in assay [3] is “D (D is <25% inhibition)”.

Turning to `N#C/C(=C\c1cccc(Br)n1)C(=O)NC1(c2ccccc2)CCOCC1` [Compound 18, (E)-3-(6-Bromopyridin-2-yl)-2-cyano-N-(4-phenyltetrahydro-2H-pyran-4-yl)acrylamide], the values for the inhibition at 5 µM in assay [1] and in assay [4] were 25 to 50% and 50 to 75%, respectively. Further, the “PARP cleavage % Inhibition” value in assay [3] is on record as “B (B is 50% to 75% inhibition)”.

As for `N#C/C(=C\c1cccc(Br)n1)C(=O)NC1(c2ccc(O)cc2)CCCC1` [Compound 79, (E)-3-(6-bromopyridin-2-yl)-2-cyano-N-(1-(4-hydroxyphenyl)cyclopentyl)acrylamide], the inhibition at 5 µM in assay [1] and in assay [4] was at least 75% each time. The “PARP cleavage % Inhibition” value in assay [3] is recorded as “A (A is ≧75% inhibition)”.
